Measured values from ChEMBL document CHEMBL3217416, “[4-(6,7-Disubstituted quinazolin-4-ylamino)phenyl] carbamic acid esters: a novel series of dual EGFR/VEGFR-2 tyrosine kinase inhibitors” (Medchemcomm, 2011).

Columns and labels:
[1] = target: Epidermal growth factor receptor (Homo sapiens, UniProt P00533); test: Inhibition of EGFR (unknown origin)
[2] = target: Vascular endothelial growth factor receptor 2 (Homo sapiens, UniProt P35968); test: Inhibition of VEGFR2 (unknown origin)
PC-3 [3] = test: Antiproliferative activity against human PC3 cells at 10 uM by MTS assay; assay type: functional, cell-based
[4] = Antiproliferative activity against human EAhy926 cells by MTS assay; assay type: functional, cell-based; details: EA.hy 926
MCF7 [5] = test: Antiproliferative activity against human MCF7 cells […] by MTS assay; assay type: functional, cell-based
HT-29 [6] = test: Antiproliferative activity against human HT-29 cells at 10 uM by MTS assay; assay type: functional, cell-based
HT-29 [7] = test: Antiproliferative activity against human HT-29 cells by MTS assay; assay type: functional
PC-3 [8] = test: Antiproliferative activity against human PC3 cells by MTS assay; assay type: functional
MCF7 [9] = test: Antiproliferative activity against human MCF7 cells by MTS assay; assay type: functional

Chain of Vascular endothelial growth factor receptor 2 (P35968 whole entry): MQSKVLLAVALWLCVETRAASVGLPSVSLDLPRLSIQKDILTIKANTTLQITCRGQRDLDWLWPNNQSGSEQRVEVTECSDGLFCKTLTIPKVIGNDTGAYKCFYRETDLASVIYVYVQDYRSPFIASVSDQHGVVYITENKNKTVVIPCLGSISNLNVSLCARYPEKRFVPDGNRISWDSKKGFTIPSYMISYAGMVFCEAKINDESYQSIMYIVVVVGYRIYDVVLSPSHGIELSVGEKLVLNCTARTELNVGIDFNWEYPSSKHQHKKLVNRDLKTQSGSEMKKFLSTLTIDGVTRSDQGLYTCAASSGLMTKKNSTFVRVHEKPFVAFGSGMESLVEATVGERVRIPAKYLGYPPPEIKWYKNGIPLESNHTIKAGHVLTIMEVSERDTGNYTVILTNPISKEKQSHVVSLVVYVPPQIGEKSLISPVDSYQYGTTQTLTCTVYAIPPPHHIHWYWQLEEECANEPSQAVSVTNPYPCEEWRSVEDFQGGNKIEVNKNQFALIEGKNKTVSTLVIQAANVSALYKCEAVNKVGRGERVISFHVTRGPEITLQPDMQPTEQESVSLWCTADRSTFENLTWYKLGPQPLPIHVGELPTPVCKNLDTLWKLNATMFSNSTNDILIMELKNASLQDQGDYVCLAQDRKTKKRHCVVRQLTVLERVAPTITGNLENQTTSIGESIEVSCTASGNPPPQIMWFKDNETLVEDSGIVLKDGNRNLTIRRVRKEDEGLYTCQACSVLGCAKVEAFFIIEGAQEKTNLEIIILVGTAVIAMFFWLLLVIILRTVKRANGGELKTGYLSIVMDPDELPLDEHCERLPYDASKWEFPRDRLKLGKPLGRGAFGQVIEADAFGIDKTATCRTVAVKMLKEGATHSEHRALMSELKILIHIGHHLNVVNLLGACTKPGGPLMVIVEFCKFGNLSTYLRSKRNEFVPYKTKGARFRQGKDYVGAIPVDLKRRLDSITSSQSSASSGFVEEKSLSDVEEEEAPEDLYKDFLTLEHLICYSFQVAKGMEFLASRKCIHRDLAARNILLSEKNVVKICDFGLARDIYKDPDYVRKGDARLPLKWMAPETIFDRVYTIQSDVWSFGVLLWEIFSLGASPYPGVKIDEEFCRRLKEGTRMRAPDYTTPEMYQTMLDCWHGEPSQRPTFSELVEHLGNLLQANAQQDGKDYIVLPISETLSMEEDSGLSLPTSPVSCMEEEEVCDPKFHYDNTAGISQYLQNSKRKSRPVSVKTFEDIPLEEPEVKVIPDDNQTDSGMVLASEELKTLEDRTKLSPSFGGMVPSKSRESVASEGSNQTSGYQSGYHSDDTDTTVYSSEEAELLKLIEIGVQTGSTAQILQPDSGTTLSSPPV
Chain of Epidermal growth factor receptor (P00533 whole entry): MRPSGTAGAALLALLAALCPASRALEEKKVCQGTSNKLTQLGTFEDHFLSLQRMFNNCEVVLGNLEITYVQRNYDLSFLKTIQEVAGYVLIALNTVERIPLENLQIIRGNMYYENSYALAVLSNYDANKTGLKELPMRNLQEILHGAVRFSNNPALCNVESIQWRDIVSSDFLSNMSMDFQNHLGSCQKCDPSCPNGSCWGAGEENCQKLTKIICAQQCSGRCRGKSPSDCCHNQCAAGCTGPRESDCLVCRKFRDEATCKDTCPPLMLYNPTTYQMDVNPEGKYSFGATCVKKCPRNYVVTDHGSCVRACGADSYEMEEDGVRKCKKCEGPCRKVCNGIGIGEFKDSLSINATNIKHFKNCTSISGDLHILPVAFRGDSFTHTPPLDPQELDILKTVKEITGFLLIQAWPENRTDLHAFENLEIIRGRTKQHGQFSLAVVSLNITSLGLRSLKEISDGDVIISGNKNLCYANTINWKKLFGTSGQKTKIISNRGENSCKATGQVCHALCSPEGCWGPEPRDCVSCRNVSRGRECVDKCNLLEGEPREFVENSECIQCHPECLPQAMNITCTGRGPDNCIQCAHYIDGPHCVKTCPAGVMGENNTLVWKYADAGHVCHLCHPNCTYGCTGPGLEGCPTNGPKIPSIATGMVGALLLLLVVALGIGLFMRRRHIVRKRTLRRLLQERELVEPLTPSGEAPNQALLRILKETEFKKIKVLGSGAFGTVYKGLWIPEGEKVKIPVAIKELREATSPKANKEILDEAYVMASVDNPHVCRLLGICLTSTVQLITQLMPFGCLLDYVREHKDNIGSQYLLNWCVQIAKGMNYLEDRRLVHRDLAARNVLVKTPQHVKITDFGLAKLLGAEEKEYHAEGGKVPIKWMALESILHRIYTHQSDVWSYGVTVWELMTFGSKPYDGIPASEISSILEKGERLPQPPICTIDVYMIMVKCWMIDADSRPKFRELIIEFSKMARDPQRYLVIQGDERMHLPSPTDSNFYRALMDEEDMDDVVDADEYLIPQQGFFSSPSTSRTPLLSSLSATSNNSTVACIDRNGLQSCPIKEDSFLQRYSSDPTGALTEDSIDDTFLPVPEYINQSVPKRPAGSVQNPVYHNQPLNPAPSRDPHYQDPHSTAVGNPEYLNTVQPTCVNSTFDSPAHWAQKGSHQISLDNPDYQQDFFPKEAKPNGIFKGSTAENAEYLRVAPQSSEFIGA

With CCCOC(=O)Nc1ccc(Nc2ncnc3cc(OC)c(OC)cc23)cc1 as the compound, how does the IC50 [1] read?
Its IC50 is 7.05 µM.

Which IC50 [1] does the source give for CCCOc1cc2ncnc(Nc3ccc(NC(=O)OCC)c(Cl)c3)c2cc1OC here?
The IC50 was 5.5 µM.

For CCCCOc1cc2c(Nc3ccc(NC(=O)OCC)c(Cl)c3)ncnc2cc1OCCN(CC)CC, which IC50 [1] is on record?
Its IC50 is 9.8 µM.

And the IC50 [2]?
The IC50 was 4.8 µM.

And the IC50 (PC-3 [3])?
Its IC50 is greater than 10 µM.

What about the IC50 [4] of the same compound?
The IC50 was 2.8 µM.

Which IC50 [1] does the source give for CCCCOC(=O)Nc1ccc(Nc2ncnc3cc(OC)c(OC)cc23)cc1C here?
The IC50 was 7.6 µM.

What about the IC50 [2] of the same compound?
Its IC50 is 5.2 µM.

With CCOC(=O)Nc1ccc(Nc2ncnc3cc(OC)c(OCCN(CC)CC)cc23)cc1C as the compound, how does the IC50 [1] read?
Its IC50 is greater than 10 µM.

And the IC50 (MCF7 [5])?
The IC50 was greater than 10 µM.

And the IC50 [2]?
Its IC50 is 7.2 µM.

What about the IC50 (PC-3 [3]) of the same compound?
The IC50 was greater than 10 µM.

And the IC50 [4]?
Its IC50 is greater than 10 µM.

And the IC50 (HT-29 [6])?
Its IC50 is greater than 10 µM.

For CCCCOC(=O)Nc1ccc(Nc2ncnc3cc(OC)c(OC)cc23)cc1Cl, which IC50 [1] is on record?
Its IC50 is 6.4 µM.

Which “inhibition (INH)” value (HT-29 [7]) does the source give for COC(=O)Nc1cc(Nc2ncnc3cc(OC)c(OC)cc23)ccc1Cl.Cl here?
Its value is 0%.

What about the IC50 [1] of the same compound?
Its IC50 is greater than 10 µM.

What about the “inhibition (INH)” value (PC-3 [8]) of the same compound?
Its value is 3%.

What about the “inhibition (INH)” value (MCF7 [9]) of the same compound?
The value was 0%.

For CCCCNC(=O)Nc1cc(Cl)c(Nc2ncnc3cc(OC)c(OC)cc23)cc1Cl.Cl, which “inhibition (INH)” value (HT-29 [7]) is on record?
Its value is 3%.

What about the IC50 [1] of the same compound?
The IC50 was greater than 10 µM.

What about the “inhibition (INH)” value (PC-3 [8]) of the same compound?
Its value is 0%.

What about the “inhibition (INH)” value (MCF7 [9]) of the same compound?
Its value is 0%.

For COC(=O)Nc1ccc(Nc2ncnc3cc(OC)c(OC)cc23)cc1C, which IC50 [1] is on record?
The IC50 was 4 µM.

With CCCC(=O)Nc1ccc(Nc2ncnc3cc(OC)c(OC)cc23)cc1C as the compound, how does the IC50 [1] read?
The IC50 was greater than 10 µM.

What about the IC50 [2] of the same compound?
The IC50 was 4.3 µM.

Which IC50 [1] does the source give for CCOC(=O)Nc1ccc(Nc2ncnc3cc(OCCN(CC)CC)c(OC)cc23)cc1C here?
The IC50 was greater than 10 µM.

What about the IC50 (MCF7 [5]) of the same compound?
Its IC50 is greater than 10 µM.

What about the IC50 [2] of the same compound?
The IC50 was 3.7 µM.

And the IC50 (PC-3 [3])?
The IC50 was greater than 10 µM.

What about the IC50 [4] of the same compound?
The IC50 was greater than 10 µM.

What about the IC50 (HT-29 [6]) of the same compound?
The IC50 was greater than 10 µM.

What does the source list for COc1cc2/c(=N/c3ccc(Br)cc3F)nc[nH]c2cc1OCC1CCN(C)CC1 [VANDETANIB]?
inhibition (INH) (PC-3 [8]): 33%; inhibition (INH) (MCF7 [9]): 26%

For COC(=O)Nc1ccc(Nc2ncnc3cc(OC)c(OC)cc23)cc1Cl, which IC50 [1] is on record?
Its IC50 is 6.15 µM.

What about the IC50 [2] of the same compound?
The IC50 was 5.05 µM.

For CCOC(=O)Nc1ccc(Nc2ncnc3cc(OCCN4CCCCC4)c(OC)cc23)cc1C, which IC50 [1] is on record?
Its IC50 is greater than 10 µM.

What about the IC50 (MCF7 [5]) of the same compound?
The IC50 was greater than 10 µM.

And the IC50 [2]?
Its IC50 is 0.9 µM.

And the IC50 (PC-3 [3])?
The IC50 was greater than 10 µM.

And the IC50 [4]?
Its IC50 is 9.3 µM.

And the IC50 (HT-29 [6])?
Its IC50 is 5.2 µM.

For CCCOc1cc2ncnc(Nc3ccc(NC(=O)OCC)c(C)c3)c2cc1OC, which IC50 [1] is on record?
Its IC50 is 3.9 µM.

For CCOC(=O)Nc1cc(Nc2ncnc3cc(OC)c(OC)cc23)ccc1C, which IC50 [1] is on record?
The IC50 was 5 µM.

What does the source list for CCC(=O)Nc1ccc(Nc2ncnc3cc(OC)c(OC)cc23)cc1C.Cl?
inhibition (INH) (HT-29 [7]): 0%; IC50 [1]: > 10 µM; inhibition (INH) (PC-3 [8]): 0%; inhibition (INH) (MCF7 [9]): 28%

Which IC50 [1] does the source give for CCOC(=O)Nc1ccc(Nc2ncnc3cc(OCCN4CCOCC4)c(OC)cc23)cc1Cl here?
The IC50 was 8.5 µM.

What about the IC50 (MCF7 [5]) of the same compound?
The IC50 was greater than 10 µM.

What about the IC50 [2] of the same compound?
The IC50 was 0.3 µM.

What about the IC50 (PC-3 [3]) of the same compound?
Its IC50 is greater than 10 µM.

And the IC50 [4]?
Its IC50 is greater than 10 µM.

And the IC50 (HT-29 [6])?
The IC50 was greater than 10 µM.

Which “inhibition (INH)” value (HT-29 [7]) does the source give for COc1cc2ncnc(Nc3ccc(NC(C)=O)c(C)c3)c2cc1OC.Cl here?
The value was 0%.

What about the IC50 [1] of the same compound?
The IC50 was greater than 10 µM.

What about the “inhibition (INH)” value (PC-3 [8]) of the same compound?
Its value is 0%.

And the “inhibition (INH)” value (MCF7 [9])?
The value was 0%.

For CCOC(=O)Nc1cc(Nc2ncnc3cc(OC)c(OC)cc23)ccc1Cl, which IC50 [1] is on record?
The IC50 was 0.9 µM.

For CCNC(=O)Nc1cc(Cl)c(Nc2ncnc3cc(OC)c(OC)cc23)cc1Cl.Cl, which “inhibition (INH)” value (HT-29 [7]) is on record?
The value was 16%.

What about the IC50 [1] of the same compound?
The IC50 was greater than 10 µM.

And the “inhibition (INH)” value (PC-3 [8])?
The value was 11%.

What about the “inhibition (INH)” value (MCF7 [9]) of the same compound?
The value was 21%.

With CCCCC(=O)Nc1ccc(Nc2ncnc3cc(OC)c(OC)cc23)cc1C as the compound, how does the IC50 [1] read?
The IC50 was greater than 10 µM.

What does the source list for CCOC(=O)Nc1ccc(Nc2ncnc3cc(OCCN4CCOCC4)c(OC)cc23)cc1C?
IC50 [1]: 8 µM; IC50 (MCF7 [5]): > 10 µM; IC50 [2]: 0.4 µM; IC50 (PC-3 [3]): > 10 µM; IC50 [4]: > 10 µM; IC50 (HT-29 [6]): > 10 µM

Which IC50 [1] does the source give for CCCOC(=O)Nc1ccc(Nc2ncnc3cc(OC)c(OC)cc23)cc1Cl here?
Its IC50 is 1 µM.

With CCCCOc1cc2c(Nc3ccc(NC(=O)OCC)c(C)c3)ncnc2cc1OCCN(CC)CC as the compound, how does the IC50 [1] read?
The IC50 was greater than 10 µM.

What about the IC50 (MCF7 [5]) of the same compound?
Its IC50 is greater than 10 µM.

And the IC50 [2]?
The IC50 was 5.7 µM.

What about the IC50 (PC-3 [3]) of the same compound?
Its IC50 is greater than 10 µM.

And the IC50 [4]?
The IC50 was 8.1 µM.

Which “inhibition (INH)” value (HT-29 [7]) does the source give for CCOC(=O)Nc1cc(Cl)c(Nc2ncnc3cc(OC)c(OC)cc23)cc1Cl.Cl here?
The value was 5%.

And the IC50 [1]?
The IC50 was greater than 10 µM.

And the “inhibition (INH)” value (PC-3 [8])?
The value was 0%.

And the “inhibition (INH)” value (MCF7 [9])?
The value was 6%.

Which results are given for CCOC(=O)Nc1ccc(Nc2ncnc3cc(OCCN4CCCCC4)c(OC)cc23)cc1Cl?
IC50 [1]: > 10 µM; IC50 (MCF7 [5]): 3 µM; IC50 [2]: 0.8 µM; IC50 (PC-3 [3]): > 10 µM; IC50 [4]: 9.3 µM; IC50 (HT-29 [6]): 5.2 µM

Which IC50 [1] does the source give for CCOC(=O)Nc1ccc(Nc2ncnc3cc(OC)c(OC)cc23)cc1C here?
The IC50 was 0.9 µM.

For CCOC(=O)Nc1ccc(Nc2ncnc3cc(OC)c(OC)cc23)cc1Cl, which IC50 [1] is on record?
Its IC50 is 1 µM.

With CCOC(=O)Nc1ccc(Nc2ncnc3cc(OCCN(CC)CC)c(OC)cc23)cc1Cl as the compound, how does the IC50 [1] read?
Its IC50 is greater than 10 µM.

And the IC50 (MCF7 [5])?
Its IC50 is greater than 10 µM.

And the IC50 [2]?
Its IC50 is 3.3 µM.

And the IC50 (PC-3 [3])?
Its IC50 is greater than 10 µM.

What about the IC50 [4] of the same compound?
Its IC50 is 6.2 µM.

For CCCCOC(=O)Nc1ccc(Nc2ncnc3cc(OC)c(OC)cc23)cc1, which IC50 [1] is on record?
Its IC50 is 0.8 µM.
